Where “and” joins values, the source holds several entries; their conditions need not be identical. Equal values may be shown once.
What was measured:
[1] = test system: PC-3; test: Cytotoxic activity, sulforhodamine B assay, PC-3; format: cell-based; conditions: Homo sapiens, PC-3 prostate cancer cells, 72 h
Experimental: (§1) Media, serum and antibiotics for cell culture were from Lonza (Basel, Switzerland). MCF7 (ER+, PR+, HER2−), SKBR3 (ER−, […], HER2+) and MDA-MB231 (ER−, PR−, HER2−) human breast cancer cells; MCF10A non-cancer breast epithelial cells; LNCAP (androgen sensitive), DU145 and PC3 (androgen independent) human prostate cancer cells; and PNT1 non-cancer prostate epithelial cells were available in our laboratory. MCF7, SKBR3 and MDA-MB231 cells were cultured in DMEM, supplemented with 10% FBS, 2 mM glutamine, 100 units/mL penicillin and 100 units/mL streptomycin. MCF10A cells were cultured in MEBM and supplemented with 0.4% BPE, 0.1% hEGF, 0.1%, Insulin, 0.1% Hydrocortisone and 0.1% GA-1000. LNCAP and DU145 cells were cultured in RPMI and supplemented with 10% FBS, 2 mM glutamine, 100 units/mL penicillin and 100 units/mL streptomycin. PC3 and PNT1 cells were cultured in DMEM-F12 (1:1), supplemented with 10% FBS, 2 mM glutamine, 100 units/mL penicillin and 100 units/mL streptomycin. Cultures were maintained in a humidified atmosphere of 95% air and 5% CO2 at 37 °C. Treatment with compounds were carried out in culture conditions. For cell survival assay, cells were fixed with 50% trichloroacetic acid for at least 2 h at 4 °C, washed with distilled and de-ionized water, air-dried and stained for 30 min with 0.4% sulforhodamine B in 1% acetic acid. Unbound dye was removed, and 10 mM tris-HCl solution (pH 7.5) was added to dissolve the protein-bound dye. Cell survival was assessed by optical density determination at 510 nm using a microplate reader.
(§2) Figure 1 Effect of novel thiazolinylphenyl-piperazines (2a–c) on PCa cell viability. LNCAP, DU145 and PC3 cells were treated with rising concentrations (5 μM, 10 μM, 25 μM, 50 μM, 100 μM) of 2a–c. After 72 h, cell viability was assessed by sulforhodamine B assay. […]
Figure 3 Effect of novel thiazolinylphenyl-piperazines (3a–c) on PC3 and MDA cell viability. […] After 72 h, cell viability was assessed by sulforhodamine B assay. […]

[2] = test system: MDA-MB231; test: Cytotoxic activity, sulforhodamine B assay, MDA-MB231; format: cell-based; conditions: Homo sapiens, MDA-MB-231, MDA-MB231 breast cancer cells, 72 h
Experimental: as §1
(§3) Figure 2 Effect of novel thiazolinylphenyl-piperazines (2a–c) on BCa cell viability. MCF7, SKBR3 and MDA cells were treated with rising concentrations (5 μM, 10 μM, 25 μM, 50 μM, 100 μM) of 2a–c. After 72 h, cell viability was assessed by sulforhodamine B assay. The results were reported as percentage of viable cells compared to positive control (untreated cells that were considered to represent the maximum viability of 100%). Data represent the mean ± SD of at least three independent triplicate experiments. * denotes statistically significant values compared with positive control (* adjp < 0.05, ** adjp < 0.01, *** adjp < 0.001).
as §3, with “Figure 3” for “Figure 2”, “thiazolinylphenyl-piperazines (3a–c)” for “thiazolinylphenyl-piperazines (2a–c)”, “on PC3 and MDA” for “on BCa”, “viability. Cells” for “viability. MCF7, SKBR3 and MDA cells”, “of 3a-c.” for “of 2a–c.”, “< 0.001, **** adjp < 0.0001).” for “< 0.001).”

[3] = biological target: T1, 5-HT1A receptor (Rattus norvegicus, UniProt P19327); test: Competitive 5-HT1A binding assay, [3H]8-OH-DPAT, hippocampal membranes; set-up: species or system Sprague Dawley rats; conditions: 5-HT1A receptor binding affinity; 1 nM [3H]8-OH-DPAT, hippocampal membrane; Cheng–Prusoff; read-out: Ki (µM, 95% CI)
T1 construct: supplemented with 0.1% ascorbate, 5 mM MgCl2 and 80 µg of hippocampal membrane suspension; from tissue; host or cells: rat hippocampus membranes (Sprague Dawley)
T1 sequence (P19327 1-422): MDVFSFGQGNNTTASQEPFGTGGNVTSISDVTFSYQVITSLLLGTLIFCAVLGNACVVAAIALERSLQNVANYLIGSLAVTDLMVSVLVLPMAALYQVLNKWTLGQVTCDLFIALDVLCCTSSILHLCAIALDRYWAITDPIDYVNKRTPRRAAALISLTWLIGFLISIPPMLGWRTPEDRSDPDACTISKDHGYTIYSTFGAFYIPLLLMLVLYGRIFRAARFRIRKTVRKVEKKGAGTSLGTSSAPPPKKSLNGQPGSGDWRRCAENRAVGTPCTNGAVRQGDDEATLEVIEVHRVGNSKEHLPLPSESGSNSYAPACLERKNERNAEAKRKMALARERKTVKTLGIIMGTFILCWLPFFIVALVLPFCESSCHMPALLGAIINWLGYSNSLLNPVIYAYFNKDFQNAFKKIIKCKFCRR
Experimental: Brains were rapidly removed and placed on ice. Hippocampi (for 5-HT1A assays) and frontal cortices (for 5-HT2A assays) were dissected on a Petri dish. […] The homogenate was centrifuged at 48,000× g at 4 °C for 15 min. […] The centrifugation and suspension steps were repeated twice.
Non-specific binding was determined with 10 μM serotonin. The final DMSO concentration in the assay was 5%. […] Each well was washed with 2 mL of 50 mM Tris-HCl (pH 7.4) buffer to separate bound ligands from free ones. Plates were left to dry overnight. […] Binding curves were fitted with one site non-linear regression.

[4] = test system: LNCAP; test: Cytotoxic activity, sulforhodamine B assay, LNCAP; format: cell-based, human; conditions: 72 h, LNCAP prostate cancer cells
Experimental: as §1
as §3, with “Figure 1” for “Figure 2”, “on PCa” for “on BCa”, “viability. LNCAP, DU145” for “viability. MCF7, SKBR3”, “and PC3” for “and MDA”, “< 0.01).” for “< 0.01, *** adjp < 0.001).”

[5] = test system: MCF-7; test: Cytotoxic activity, sulforhodamine B assay, MCF-7; format: cell-based; conditions: Homo sapiens, MCF7, MCF-7 breast cancer cells, 72 h
Experimental: as §1
as §3, with “Data represent the mean ± SD of at least three independent triplicate experiments. * denotes statistically significant values compared with positive control (* adjp < 0.05, ** adjp < 0.01, *** adjp < 0.001).” left out

[6] = test system: SKBR-3; test: Cytotoxic activity, sulforhodamine B assay, SKBR-3; format: cell-based; conditions: Homo sapiens, SK-BR-3, SKBR-3 breast cancer cells, 72 h
Experimental: as §1
as §3, with “Data represent the mean ± SD of at least three independent triplicate experiments. * denotes statistically significant values compared with positive control (* adjp < 0.05, ** adjp < 0.01, *** adjp < 0.001).” left out

[7] = test system: DU-145; test: Cytotoxic activity, sulforhodamine B assay, DU-145; format: cell-based; conditions: Homo sapiens, DU-145 prostate cancer cells, 72 h
Experimental: as §1
as §2, with “assay. The results were reported as percentage of viable cells compared to positive control (untreated cells that were considered to represent the maximum viability of 100%).” for “assay.”

`CC(=O)N1CCN(c2cccc(C3=NCCS3)c2)CC1` [3b, 1-(4-(3-(4,5-Dihydrothiazol-2-yl)phenyl)piperazin-1-yl)ethan-1-one] showed an IC50 [1] of 65 ± 7.4 µM and an IC50 [2] of 34.6 ± 5.4 µM.
In the case of `CC(=O)N1CCN(c2ccccc2C2=NCCS2)CC1` [3a, 1-(4-(2-(4,5-Dihydrothiazol-2-yl)phenyl)piperazin-1-yl)ethan-1-one], the melting point is reported as 90 to 92 °C, the IC50 [1] is reported as 73.3 ± 10.3 µM and the IC50 [2] is reported as 23.3 ± 3.4 µM.
Compound `c1cc(N2CCNCC2)ccc1C1=NCCS1` [2c, 2-(4-(Piperazin-1-yl)phenyl)-4,5-dihydrothiazole] has a Ki [3] of 49.5 µM, an IC50 ([4]; Homo sapiens, LNCaP) of 32 µM and an IC50 [4] of 31.9 ± 9.2 µM. For the same compound, the IC50 [5] was 19.5 ± 2.3 µM, the IC50 [6] was 27.7 ± 4.8 µM and the IC50 [2] was 36.3 ± 7.7 µM. The IC50 [7] was 47.7 ± 11.7 µM.
In the case of `CC(=O)N1CCN(c2ccc(C3=NCCS3)cc2)CC1` [3c, 1-(4-(4-(4,5-Dihydrothiazol-2-yl)phenyl)piperazin-1-yl)ethan-1-one], the IC50 [1] is reported as 32.1 ± 10.2 µM and the IC50 [2] is reported as 47.1 ± 6.7 µM.
`c1cc(C2=NCCS2)cc(N2CCNCC2)c1` [2b, 2-(3-(Piperazin-1-yl)phenyl)-4,5-dihydrothiazole] showed a Ki [3] of 0.412 µM, an IC50 ([4]; Homo sapiens, LNCaP) of 48.5 ± 7.3 µM and an IC50 [5] of 15.9 ± 1.8 µM. It also gave an IC50 [6] of 27.6 ± 5.6 µM, an IC50 [2] of 40 ± 9.8 µM and an IC50 [7] of 66.6 ± 9.4 µM.
For `c1ccc(N2CCNCC2)c(C2=NCCS2)c1` [2a, 2-(2-(Piperazin-1-yl)phenyl)-4,5-dihydrothiazole], the Ki [3] was 2.29 µM and 2.3 µM, the IC50 ([4]; Homo sapiens, LNCaP) was 67.2 ± 13.1 µM and the IC50 [5] was 14.7 ± 1.9 µM. The IC50 [6] was 28.2 ± 4.1 µM, the IC50 [2] was 31.4 ± 5.1 µM and the IC50 [7] was 66.6 ± 7.3 µM.

Reference: publication PMC10609883, “Design, Synthesis and Biological Evaluation of Novel N-Arylpiperazines Containing a 4,5-Dihydrothiazole Ring” (Pharmaceuticals, 2023)
